≈ marks a conversion by molar mass, not a printed value. Where a name gives a salt, the structure may show the parent alone. Read-outs that look alike come from different tables or passages of the source.
Columns and labels:
[1] = system: Ralstonia solanacearum ATCC 11696; experiment: microbe, parasite or virus in culture; format: cell-based; settings: ATCC11696, 24 h, read-out: IC50, antimicrobial activity, R. sol.
[2] = system: Agrobacterium tumefaciens ATCC 11158; experiment: microbe, parasite or virus in culture; format: cell-based; settings: ATCC11158, 24 h, read-out: IC50, antimicrobial activity, A. tum.
[3] = system: Pseudomonas lachrymans ATCC 11921; experiment: microbe, parasite or virus in culture; format: cell-based; settings: ATCC11921, 24 h, read-out: IC50, antimicrobial activity, P. lach.
Magnaporthe oryzae P131 = experiment: microbe, parasite or virus in culture; format: cell-based; settings: Pyricularia oryzae, read-out: IC50, antimicrobial activity, M. or.
[4] = system: Xanthomonas vesicatoria ATCC 11633; experiment: microbe, parasite or virus in culture; format: cell-based; settings: ATCC11633, 24 h, read-out: IC50, antimicrobial activity, X. ves.
[5] = target: T1, acetylcholinesterase (AChE) (Homo sapiens, UniProt P22303); experiment: biochemical
T1 construct: purchased Sigma-Aldrich (St. Louis, MO, USA)

[6] = system: Bacillus subtilis ATCC 11562; experiment: microbe, parasite or virus in culture; format: cell-based; settings: ATCC11562, 24 h, read-out: IC50, antimicrobial activity, B. sub.
Staphylococcus aureus = settings: cited from earlier work
C. sphaerospermum = system: C. sphaerospermum; design: method as in PMID 20158153; settings: compound from endophytic Penicillium sp.; cited from earlier work
[7] = system: methicillin-resistant S. aureus; settings: cited from earlier work
Bacillus megaterium = system: Bacillus megaterium; design: method as in earlier work; settings: compound from endophytic fungus of Meliotus dentatus; cited from earlier work
Microbotryum violacerum = system: Microbotryum violacerum; design: method as in earlier work; settings: compound from endophytic fungus of Meliotus dentatus; cited from earlier work
[8] = system: Cladosporium cladosporioides; design: method as in PMID 20158153; settings: compound from endophytic Penicillium sp.; cited from earlier work
[9] = system: various cultured mammalian cells; settings: cited from earlier work
[10] = system: human colon carcinoma cells; settings: cited from earlier work
[11] = target: acetycholinesterase (AChE); design: method as in PMID 15787237; settings: previously reported; cited from earlier work
Alternaria alternata = system: Alternaria alternata; design: method as in PMID 15787237; settings: cited from earlier work

T1 sequence (P22303 32-614, species assumed): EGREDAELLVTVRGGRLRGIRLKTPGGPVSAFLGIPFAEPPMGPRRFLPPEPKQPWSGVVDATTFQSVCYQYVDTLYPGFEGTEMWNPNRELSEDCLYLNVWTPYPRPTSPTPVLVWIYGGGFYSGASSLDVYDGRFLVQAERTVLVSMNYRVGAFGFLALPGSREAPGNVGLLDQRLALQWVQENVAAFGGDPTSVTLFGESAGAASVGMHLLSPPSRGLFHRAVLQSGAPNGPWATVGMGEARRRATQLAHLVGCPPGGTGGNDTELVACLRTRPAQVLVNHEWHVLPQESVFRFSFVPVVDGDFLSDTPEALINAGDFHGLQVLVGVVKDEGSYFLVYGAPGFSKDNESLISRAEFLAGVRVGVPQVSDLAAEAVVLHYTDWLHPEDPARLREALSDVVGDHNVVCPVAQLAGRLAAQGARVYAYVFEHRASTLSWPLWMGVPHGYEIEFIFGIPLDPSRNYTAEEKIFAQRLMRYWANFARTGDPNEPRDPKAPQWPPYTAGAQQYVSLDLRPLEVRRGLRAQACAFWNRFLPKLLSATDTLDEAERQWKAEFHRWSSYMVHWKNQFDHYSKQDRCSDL

| SMILES | IC50 [1] | IC50 [2] | IC50 [3] | IC50 (Magnaporthe oryzae P131; P131, 7 h at 25 °C) | IC50 [4] | IC50 [5] | IC50 [6] | MIC (Staphylococcus aureus) | antifungal activity at concentration (C. sphaerospermum) | MIC [7] | antibacterial activity (Bacillus megaterium) | antifungal activity (Microbotryum violacerum) | IC50 (Magnaporthe oryzae P131; P131, 7 h) | antifungal activity at concentration [8] | DNA strand breaks, micronuclei and gene mutations [9] | mitochondrial apoptosis [10] | IC50, acetycholinesterase (AChE) inhibitory activity [11] | MIC (Alternaria alternata) |
| --- | --- | --- | --- | --- | --- | --- | --- | --- | --- | --- | --- | --- | --- | --- | --- | --- | --- | --- |
| COc1cc(O)c2c(=O)oc3cc(O)c(Cl)c(C)c3c2c1 [Palmariol B (1), 2-chloro-3,7-dihydroxy-9-methoxy-1-methyl-6H-dibenzo[b,d]pyran-6-one] | 17.5 µg/mL (≈ 57.1 µM) | 19.4 µg/mL (≈ 63.1 µM) | 16.7 µg/mL (≈ 54.6 µM) | 119 µg/mL (≈ 387 µM) | 28.1 µg/mL (≈ 91.7 µM) | 376 µM | 27.7 µg/mL (≈ 90.2 µM) | – | – | – | – | – | – | – | – | – | – | – |
| CC1OC(=O)c2c(O)cccc2C1O (centres unmarked) [4,8-dihydroxy-3-methylbenzopyran-1-one] | 16.2 µg/mL (≈ 83.6 µM) | 18.2 µg/mL (≈ 93.8 µM) | 16.2 µg/mL (≈ 83.3 µM) | – | 17.8 µg/mL (≈ 91.7 µM) | 598 µM | 19.2 µg/mL (≈ 99 µM) | 8 µg/mL (≈ 41.2 µM) | 10.0 µg/mL | 8 µg/mL (≈ 41.2 µM) | strong antibacterial activity | antifungal activity | 113 µg/mL (≈ 584 µM) | 5.00 µg/mL | – | – | – | – |
| [H]/N=C(/N)N[C@H]1[C@H](O)[C@@H](O)[C@H](O[C@@H]2O[C@@H](C)[C@](O)(C=O)[C@H]2O[C@@H]2O[C@@H](CO)[C@H](O)[C@@H](O)[C@@H]2NC)[C@@H](N/C(N)=N\[H])[C@@H]1O [streptomycin sulfate, reference compound] | 7.19 µg/mL | 6.34 µg/mL | 8.34 µg/mL | – | 6.79 µg/mL | – | 8.35 µg/mL | – | – | – | – | – | – | – | – | – | – | – |
| COc1cc(O)c2c(=O)oc3cc(O)cc(C)c3c2c1 [Alternariol 9-methyl ether (3), 3,7-dihydroxy-9-methoxy-1-methyl-6H-dibenzo[b,d]pyran-6-one] | 29.2 µg/mL (≈ 107 µM) | 28.8 µg/mL (≈ 106 µM) | 27.1 µg/mL (≈ 99.5 µM) | 123 µg/mL (≈ 452 µM) | 30.1 µg/mL (≈ 110 µM) | 498 µM | 34.3 µg/mL (≈ 126 µM) | – | – | – | – | – | – | – | induce DNA strand breaks, micronuclei and gene mutations | induce mitochondrial apoptosis | – | – |
| COC(=O)Nc1nc2ccccc2[nH]1 [carbendazim, reference compound] | – | – | – | – | – | – | – | – | – | – | – | – | 13 µg/mL (≈ 68 µM) | – | – | – | – | – |
| COC1=CC2(C)OC(=O)c3c(O)cc(OC)cc3C2=C(O)C1=O (centres unmarked) [Botrallin (4), 1,7-dihydroxy-3,9-dimethoxy-4a-methyl-6H-dibenzo[b,d]pyran-2,6 (4aH)-dione] | 85.5 µg/mL (≈ 269 µM) | 87.5 µg/mL (≈ 275 µM) | 92.2 µg/mL (≈ 290 µM) | 107 µg/mL (≈ 337 µM) | 86.3 µg/mL (≈ 271 µM) | 326 µM | 98.5 µg/mL (≈ 309 µM) | – | – | – | – | – | – | – | – | – | 6.1 µg/mL (≈ 19.2 µM) | 62.5 µg/mL (≈ 196 µM) |

Source: publication PMC6268909 (Molecules, 2012)
